# Data from patent publication US12252524B2, “GIP/GLP1 co-agonist compounds” (Eli Lilly and Company, priority 2018, dated 2025).
# Numbered stars: 1 amine (or outer) side, 2 acyl side, 3 side chain; on linkers, the order of the positions; unused ones are H or OH. Square brackets hold non-standard residues; d marks the D form. Side chains are listed from the residue outwards. Peptide text beside a SMILES is read from it. * marks the point of attachment. C20 diacid = O=C(O)CCCCCCCCCCCCCCCCCCC(=O)*; C18 diacid = O=C(O)CCCCCCCCCCCCCCCCC(=O)*; αMePhe(2-F) = C[C@](N)(Cc1ccccc1F)C(=O)O; γGlu = O=C(O)[C@H](CCC(=O)[*:2])N[*:1]; 3Pal = N[C@@H](Cc1cccnc1)C(=O)O; αMeL = CC(C)C[C@](C)(N)C(=O)O; AEEA = NCCOCCOCC(=O)O; Aib = CC(C)(N)C(=O)O
# Key:
# human Gcg receptor = target: T1, human Gcg receptor (Homo sapiens, UniProt P47871); test: [125I]-Glucagon binding (SPA), human Gcg receptor; conditions: read-out: hGLcgR Ki, nM (SEM, n)
# T1 construct: expressed in transfected cells; crude membranes
# T1 sequence (P47871 26-477): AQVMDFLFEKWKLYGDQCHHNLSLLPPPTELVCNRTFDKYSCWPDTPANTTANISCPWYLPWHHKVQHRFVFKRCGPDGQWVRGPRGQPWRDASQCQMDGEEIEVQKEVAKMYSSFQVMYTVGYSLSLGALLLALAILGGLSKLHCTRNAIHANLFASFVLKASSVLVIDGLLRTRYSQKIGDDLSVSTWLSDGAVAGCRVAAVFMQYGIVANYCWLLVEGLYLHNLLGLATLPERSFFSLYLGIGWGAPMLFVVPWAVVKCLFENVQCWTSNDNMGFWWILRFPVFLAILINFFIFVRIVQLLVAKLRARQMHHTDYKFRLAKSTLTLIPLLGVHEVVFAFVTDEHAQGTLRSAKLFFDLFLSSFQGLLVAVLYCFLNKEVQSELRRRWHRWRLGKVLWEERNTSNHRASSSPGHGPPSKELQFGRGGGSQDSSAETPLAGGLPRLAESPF
# Procedure, shortened: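 Crude membranes from cells expressing the receptor, prepared by hypotonic lysis in 50 mM Tris HCl pH 7.5 with protease inhibitors, homogenization and differential centrifugation, were used in a WGA-bead SPA. Binding buffer: 25 mM HEPES pH 7.4, 2.5 mM CaCl2, 1 mM MgCl2, bacitracin, Tween-20.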
# human GIP receptor = target: T2, human GIP receptor (Homo sapiens, UniProt P48546); test: [125I]-GIP binding (SPA), human GIP receptor; conditions: read-out: hGIPR Ki, nM (SEM, n)
# T2 construct: expressed in transfected cells; crude membranes
# T2 sequence (P48546 22-466): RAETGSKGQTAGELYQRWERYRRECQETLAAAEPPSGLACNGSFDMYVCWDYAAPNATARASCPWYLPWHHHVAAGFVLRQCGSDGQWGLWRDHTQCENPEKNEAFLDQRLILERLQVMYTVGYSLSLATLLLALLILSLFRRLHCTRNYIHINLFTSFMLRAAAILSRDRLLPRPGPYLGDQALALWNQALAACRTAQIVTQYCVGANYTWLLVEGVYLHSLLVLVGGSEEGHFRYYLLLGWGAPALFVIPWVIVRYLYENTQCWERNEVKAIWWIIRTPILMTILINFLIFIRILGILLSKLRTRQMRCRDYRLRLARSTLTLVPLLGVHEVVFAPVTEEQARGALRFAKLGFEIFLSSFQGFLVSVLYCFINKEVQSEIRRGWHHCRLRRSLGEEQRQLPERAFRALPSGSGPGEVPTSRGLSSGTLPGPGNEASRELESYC
# [1] = target: human GLP-1 receptor (GLP-1R) (Homo sapiens, UniProt P43220); test: cAMP pharmacological functional assay in presence of casein, hGLP-1R; type: cell-based; conditions: HEK293 cells expressing hGLP-1R, 0.1% Casein, geometric mean; read-out: hGLP1R cAMP Rel EC50 nM (SEM, n)
# human GLP-1 receptor (GLP-1R), sequence (P43220 24-463): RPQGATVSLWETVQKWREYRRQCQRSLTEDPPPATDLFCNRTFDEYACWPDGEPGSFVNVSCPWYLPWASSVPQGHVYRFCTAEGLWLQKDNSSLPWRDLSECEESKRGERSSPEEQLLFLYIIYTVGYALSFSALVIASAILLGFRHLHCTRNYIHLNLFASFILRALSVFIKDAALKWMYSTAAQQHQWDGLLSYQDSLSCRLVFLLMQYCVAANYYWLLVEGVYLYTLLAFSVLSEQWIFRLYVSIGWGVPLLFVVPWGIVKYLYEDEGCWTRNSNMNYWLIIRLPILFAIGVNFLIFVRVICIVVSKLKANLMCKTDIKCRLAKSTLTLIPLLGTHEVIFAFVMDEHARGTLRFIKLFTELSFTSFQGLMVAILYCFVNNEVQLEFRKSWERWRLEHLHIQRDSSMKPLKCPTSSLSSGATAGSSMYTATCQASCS
# [2] = target: T3, gastric inhibitory peptide receptor (GIPR) (Homo sapiens, UniProt P48546); test: cAMP pharmacological functional assay in presence of casein, hGIPR; type: cell-based; conditions: HEK293 cells expressing hGIPR, 0.1% Casein, geometric mean; read-out: hGIPR cAMP Rel EC50 nM (SEM, n)
# T3 sequence (P48546 22-466): T2 sequence (P48546 22-466)
# human GLP-1R = human GLP-1R (Homo sapiens, UniProt P43220); test: [125I]-GLP-1 binding (SPA), human GLP-1 receptor; design: expressed in transfected cells; crude membranes; conditions: read-out: hGLP1R Ki, (nM) (SEM, n)
# human GLP-1R, sequence (P43220 24-463): as above
# Procedure, shortened: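 Membranes: hypotonic lysis (50 mM Tris HCl, pH 7.5, protease inhibitors), Potter-Elvehjem homogenization, high-speed pellet (35000×g 1 h or 25000×g 30 min, 4° C.). Buffer: 25 mM HEPES pH 7.4, 2.5 mM CaCl2, 1 mM MgCl2. Four-parameter IC50 fit; Ki as geometric mean ± SEM.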
Compound,Ki (human Gcg receptor),Ki (human GIP receptor),EC50 [1],EC50 [2],Ki (human GLP-1R)
CC[C@H](C)[C@H](NC(=O)[C@H](CC(C)C)NC(=O)[C@H](Cc1ccc(O)cc1)NC(=O)[C@H](CCC(=O)O)NC(=O)[C@@H](NC(=O)[C@H](Cc1ccccc1)NC(=O)[C@H](C)NC(=O)[C@H](CCCCN)NC(=O)[C@H](CCC(N)=O)NC(=O)[C@H](C)NC(=O)[C@H](CCCCNC(=O)COCCOCCNC(=O)COCCOCCNC(=O)CC[C@H](NC(=O)CCCCCCCCCCCCCCCCC(=O)O)C(=O)O)NC(=O)[C@H](CCCCN)NC(=O)[C@H](CC(=O)O)NC(=O)[C@H](CC(C)C)NC(=O)[C@H](CC(C)C)NC(=O)[C@@H](NC(=O)[C@H](CO)NC(=O)[C@H](Cc1ccc(O)cc1)NC(=O)[C@H](CC(=O)O)NC(=O)[C@H](CO)NC(=O)[C@@H](NC(=O)[C@H](Cc1ccccc1)NC(=O)[C@@H](NC(=O)CNC(=O)[C@H](CCC(=O)O)NC(=O)C(C)(C)NC(=O)[C@@H](N)Cc1ccc(O)cc1)[C@@H](C)O)[C@@H](C)O)[C@@H](C)CC)[C@@H](C)CC)C(=O)N[C@@H](CCC(=O)O)C(=O)NCC(=O)NCC(=O)N1CCC[C@H]1C(=O)N[C@@H](CO)C(=O)N[C@@H](CO)C(=O)NCC(N)=O [Example 296] (H-Y[Aib]EGTFTSDYSILLDKK([AEEA-AEEA-γGlu-C18 diacid])AQKAFIEYLIEGGPSSG-NH2),> 1000 nM,0.444 nM,0.0867 nM,0.198 nM,3.33 nM
CC[C@H](C)[C@H](NC(=O)[C@H](Cc1ccccc1)NC(=O)[C@H](C)NC(=O)C(C)(C)NC(=O)[C@H](CCC(N)=O)NC(=O)[C@H](C)NC(=O)[C@H](CCCCNC(=O)COCCOCCNC(=O)COCCOCCNC(=O)CC[C@H](NC(=O)CCCCCCCCCCCCCCCCCCC(=O)O)C(=O)O)NC(=O)[C@H](CO)NC(=O)[C@H](CC(=O)O)NC(=O)[C@H](CC(C)C)NC(=O)[C@](C)(CC(C)C)NC(=O)[C@@H](NC(=O)[C@H](CO)NC(=O)[C@H](Cc1ccc(O)cc1)NC(=O)[C@H](CC(=O)O)NC(=O)[C@H](CO)NC(=O)[C@@H](NC(=O)[C@H](Cc1ccccc1)NC(=O)[C@@H](NC(=O)CNC(=O)[C@H](CCC(=O)O)NC(=O)C(C)(C)NC(=O)[C@@H](N)Cc1ccc(O)cc1)[C@@H](C)O)[C@@H](C)O)[C@@H](C)CC)C(=O)N[C@@H](CCC(=O)O)C(=O)N[C@@H](Cc1ccc(O)cc1)C(=O)N[C@@H](CC(C)C)C(=O)N[C@@H](CC(C)C)C(=O)N[C@@H](CCC(=O)O)C(=O)NCC(=O)NCC(=O)N1CCC[C@H]1C(=O)N[C@@H](CO)C(=O)N[C@@H](CO)C(=O)NCC(=O)N[C@@H](C)C(=O)N1CCC[C@H]1C(=O)N1CCC[C@H]1C(=O)N1CCC[C@H]1C(=O)N[C@@H](CO)C(N)=O [Example 61] (H-Y[Aib]EGTFTSDYSI[αMeL]LDSK([AEEA-AEEA-γGlu-C20 diacid])AQ[Aib]AFIEYLLEGGPSSGAPPPS-NH2),110 nM,0.102 nM,0.371 nM,0.0739 nM,11.1 nM
CC[C@H](C)[C@H](NC(=O)[C@H](CC(C)C)NC(=O)[C@H](Cc1ccc(O)cc1)NC(=O)[C@H](CCC(=O)O)NC(=O)[C@@H](NC(=O)[C@H](Cc1ccccc1)NC(=O)[C@H](CCC(=O)O)NC(=O)C(C)(C)NC(=O)[C@H](CCC(N)=O)NC(=O)[C@H](C)NC(=O)[C@H](CCCCNC(=O)COCCOCCNC(=O)COCCOCCNC(=O)CC[C@H](NC(=O)CCCCCCCCCCCCCCCCCCC(=O)O)C(=O)O)NC(=O)[C@H](CCC(=O)O)NC(=O)[C@H](CC(=O)O)NC(=O)[C@H](CC(C)C)NC(=O)[C@](C)(CC(C)C)NC(=O)[C@@H](NC(=O)[C@H](CO)NC(=O)[C@H](Cc1cccnc1)NC(=O)[C@H](CC(=O)O)NC(=O)[C@H](CO)NC(=O)[C@@H](NC(=O)[C@](C)(Cc1ccccc1F)NC(=O)[C@@H](NC(=O)CNC(=O)[C@H](CCC(=O)O)NC(=O)C(C)(C)NC(=O)[C@@H](N)Cc1ccc(O)cc1)[C@@H](C)O)[C@@H](C)O)[C@@H](C)CC)[C@@H](C)CC)C(=O)N[C@@H](CCC(=O)O)C(=O)NCC(=O)NCC(=O)N1CCC[C@H]1C(=O)N[C@@H](CO)C(=O)N[C@@H](CO)C(=O)NCC(=O)N[C@@H](C)C(=O)N1CCC[C@H]1C(=O)N1CCC[C@H]1C(=O)N1CCC[C@H]1C(=O)N[C@@H](CO)C(N)=O [Example 157] (H-Y[Aib]EGT[αMePhe(2-F)]TSD[3Pal]SI[αMeL]LDEK([AEEA-AEEA-γGlu-C20 diacid])AQ[Aib]EFIEYLIEGGPSSGAPPPS-NH2),179 nM,0.0937 nM,0.0431 nM,0.0453 nM,8.97 nM
CC[C@H](C)[C@H](NC(=O)[C@H](Cc1ccccc1)NC(=O)[C@H](C)NC(=O)C(C)(C)NC(=O)[C@H](CCC(N)=O)NC(=O)[C@H](C)NC(=O)[C@H](CCCCNC(=O)COCCOCCNC(=O)COCCOCCNC(=O)CC[C@H](NC(=O)CCCCCCCCCCCCCCCCCCC(=O)O)C(=O)O)NC(=O)[C@H](CCCCN)NC(=O)[C@H](CC(=O)O)NC(=O)[C@H](CC(C)C)NC(=O)[C@H](CC(C)C)NC(=O)[C@@H](NC(=O)[C@H](CO)NC(=O)[C@H](Cc1ccc(O)cc1)NC(=O)[C@H](CC(=O)O)NC(=O)[C@H](CO)NC(=O)[C@@H](NC(=O)[C@H](Cc1ccccc1)NC(=O)[C@@H](NC(=O)CNC(=O)[C@H](CCC(=O)O)NC(=O)C(C)(C)NC(=O)[C@@H](N)Cc1c[nH]cn1)[C@@H](C)O)[C@@H](C)O)[C@@H](C)CC)C(=O)N[C@@H](CCC(=O)O)C(=O)N[C@@H](Cc1ccc(O)cc1)C(=O)N[C@@H](CC(C)C)C(=O)N[C@H](C(=O)N[C@@H](CCC(=O)O)C(=O)NC(C)(C)C(=O)NCC(=O)N1CCC[C@H]1C(=O)N[C@@H](CO)C(=O)N[C@@H](CO)C(=O)NCC(=O)N[C@@H](C)C(=O)N1CCC[C@H]1C(=O)N1CCC[C@H]1C(=O)N1CCC[C@H]1C(=O)N[C@@H](CO)C(N)=O)[C@@H](C)CC [Example 16] (H-H[Aib]EGTFTSDYSILLDKK([AEEA-AEEA-γGlu-C20 diacid])AQ[Aib]AFIEYLIE[Aib]GPSSGAPPPS-NH2),371 nM,0.0841 nM,0.0437 nM,0.975 nM,2.78 nM
CC[C@H](C)[C@H](NC(=O)[C@H](CCCCN)NC(=O)[C@H](CC(=O)O)NC(=O)[C@H](CC(C)C)NC(=O)[C@H](CC(C)C)NC(=O)[C@@H](NC(=O)[C@H](CO)NC(=O)[C@H](Cc1ccc(O)cc1)NC(=O)[C@H](CC(=O)O)NC(=O)[C@H](CO)NC(=O)[C@@H](NC(=O)[C@H](Cc1ccccc1)NC(=O)[C@@H](NC(=O)CNC(=O)[C@H](CCC(=O)O)NC(=O)C(C)(C)NC(=O)[C@@H](N)Cc1ccc(O)cc1)[C@@H](C)O)[C@@H](C)O)[C@@H](C)CC)C(=O)N[C@@H](C)C(=O)N[C@@H](CCC(N)=O)C(=O)NC(C)(C)C(=O)N[C@@H](C)C(=O)N[C@@H](Cc1ccccc1)C(=O)N[C@H](C(=O)N[C@@H](CCC(=O)O)C(=O)N[C@@H](Cc1ccc(O)cc1)C(=O)N[C@@H](CC(C)C)C(=O)N[C@@H](CCCCNC(=O)COCCOCCNC(=O)COCCOCCNC(=O)CC[C@H](NC(=O)CCCCCCCCCCCCCCCCCCC(=O)O)C(=O)O)C(=O)N[C@@H](CCC(=O)O)C(=O)NCC(=O)NCC(=O)N1CCC[C@H]1C(=O)N[C@@H](CO)C(=O)N[C@@H](CO)C(=O)NCC(=O)N[C@@H](C)C(=O)N1CCC[C@H]1C(=O)N1CCC[C@H]1C(=O)N1CCC[C@H]1C(=O)N[C@@H](CO)C(N)=O)[C@@H](C)CC [Example 36] (H-Y[Aib]EGTFTSDYSILLDKIAQ[Aib]AFIEYLK([AEEA-AEEA-γGlu-C20 diacid])EGGPSSGAPPPS-NH2),413 nM,0.141 nM,2.29 nM,0.309 nM,16.4 nM
